Experimental data as given in patent US11572475B2, “Carbocyanines for G-quadruplex DNA stabilization and telomerase inhibition” (GEORGIA STATE UNIVERSITY RESEARCH FOUNDATION, INC., priority 2011, dated 2023).

How the values were obtained:
Format in all cases: binding
Duplex DNA = assay: Thermal melting UV-Vis absorbance, duplex DNA; conditions: for Change in Thermal Melting Points, Duplex, 1:1: ratio 1:1 (R); for Change in Thermal Melting Points, Duplex, 2:1: ratio 2:1 (R); for Change in Thermal Melting Points, Duplex, 4:1: ratio 4:1 (R); for Change in Thermal Melting Points, Duplex, 6:1: ratio 6:1 (R)
Method: (§1) Three DNA sequences were used: Human Telomere (HTelo), c-myc, and Duplex (Integrated DNA Technologies, San Diego, Calif.). The sequences are shown below:
(§2) The buffer used was 10 mM Tris base (Fischer Scientific, Fairlawn, N.J.), 50 mM Potassium Chloride (Fischer Scientific, Fairlawn, N.J.), with the pH adjusted to 7.5 with Hydrochloric Acid (Fischer Scientific, Fairlawn, N.J.).
(§3) DNA folding and unfolding (melting) can be measured using absorbance at a constant wavelength of 260 nm for duplex DNA and 295 nm for quadruplex DNA while the temperature is increased, for example from 25° C. to 95° C. At these wavelengths, the resulting curves decrease in absorbance for quadruplex and increase for duplex DNA. Buffer solution and presence of DNA-binding compounds alter the Tm melting temperature, or midpoint between fully folded and unfolded. An increase in melting temperature in the presence of DNA-binding compounds indicates a stabilizing effect of the compound on the DNA structure.
(§4) The selectivity of a given cyanine for quadruplex DNA can be evaluated using thermal melting. The number in parentheses next to the compound number corresponds to the compound number in Schemes 1 and 2.
(§5) Thermal melting studies were also performed on compounds T4 and T5 (Scheme 2) and ZK-14 and SP-2-36.

[1] = system: Human Telomere (HT) quadruplex DNA; assay: Thermal melting UV-Vis absorbance, quadruplex DNA; conditions: for Selectivity for quadruplex over duplex DNA by thermal melting: quadruplex vs duplex; for Change in Thermal Melting Points, Human Telomere (HT), 1:1: ratio 1:1 (R); for Change in Thermal Melting Points, Human Telomere (HT), 2:1: ratio 2:1 (R); for Change in Thermal Melting Points, Human Telomere (HT), 4:1: ratio 4:1 (R); for Change in Thermal Melting Points, Human Telomere (HT), 6:1: ratio 6:1 (R)
Method: as §1
The concentration of each DNA sample mixed with MilliQ water was determined by UV-Vis at 260 nm using their extinction coefficients. Quadruplexes from Human Telomere (Tel22) and c-myc were prepared by heating the corresponding oligonucleotides at 90° C. for 5 minutes in a 10 mM Tris/50 mM KCl buffer at pH 7.5 and then cooling to room temperature (to favor the intramolecular folding).
as §2, §3, §4, §5

[2] = system: Human Telomere (HT) quadruplex DNA; assay: Fluorescence titration with human telomere quadruplex; conditions: fluorescence intensity of bound ligand divided by that of free ligand
From the text: (§6) Atoms absorb energy and can emit it as heat (vibrational relaxation), fast light emission (fluorescence), or slow light emission (phosphorescence). Most of the cyanines described herein fluoresce in response to near-infrared wavelengths of light absorption. As the cyanines bind to DNA, π-π stacking and hydrogen bonding is altered leading to a change in fluorescence emission. This change can be measured in direct correlation to DNA binding. In some cases an approximate binding constant can be determined from measuring fluorescence enhancement as DNA is titrated into a solution of fluorescent compound. Fluorescent enhancement, or the maximum emission divided by the minimum emission of the titration (compound saturated with DNA divided by free compound) at a fixed wavelength is useful to compare DNA affinity between a family of compounds.
(§7) A UV-Vis absorbance scan is first conducted to acquire the excitation wavelength. A 5 μM solution of compound in 1 mL, of Tris/K+ buffer is scanned from 800 nm to 200 nm at a rate of 60 nm/min with a 5 nm slit width. All DNAs are diluted in Tris/K+ buffer. The human telomere and c-Myc DNA are annealed into a quadruplex motif by heating at 95° C. in the presence of potassium ions in a hot water bath for approximately five minutes, then allowing the solution to slowly come to room temperature. In a fluorescence cell, an emission scan of 1 μM of compound in 1 mL of Tris Buffer is taken (Varian Cary Eclipse, Walnut Creek, Calif.) with appropriate parameters based on the excitation wavelength, an excitation slit width of 5 nm, and an emission slit width of 5 nm. Then 0.05 μM of DNA is titrated into the solution and scanned under the same conditions after each addition. The solution is titrated to saturation, at which the change in fluorescence intensity is nearly zero.
(§8) Due to the highly stabilized parallel quadruplex structure of c-Myc, thermal melting could not be considered for this sequence. Thus, fluorescence can be used to measure binding affinity towards the two quadruplex structures. […] Fluorescence enhancement, or the fluorescence intensity of the bound ligand divided by that of the free ligand, was considered in evaluating binding.

c-Myc quadruplex DNA = assay: Fluorescence titration with c-Myc quadruplex; conditions: fluorescence intensity of bound ligand divided by that of free ligand
From the text: as §6, §7, §8

How did the “Change in Thermal Melting Points, Duplex, 1:1” value (Duplex DNA) turn out when `CC1(C)C(/C=C/C(Cl)=C/C=C2\N(CCC[N+](C)(C)C)c3ccccc3C2(C)C)=[N+](CCC[N+](C)(C)C)c2ccccc21.[Br-].[Br-].[Br-]` [A-20 (42)] was run?
The value was 0.

And the “Change in Thermal Melting Points, Duplex, 2:1” value (Duplex DNA)?
Its value is 0.9.

And the “Change in Thermal Melting Points, Duplex, 4:1” value (Duplex DNA)?
Its value is 0.9.

What about the “Change in Thermal Melting Points, Duplex, 6:1” value (Duplex DNA) of the same compound?
Its value is 2.8.

And the “Selectivity for quadruplex over duplex DNA by thermal melting” value [1]?
Its value is “selectively bind to quadruplex DNA with little or no binding to duplex DNA”.

And the “Change in Thermal Melting Points, Human Telomere (HT), 1:1” value [1]?
Its value is 2.6.

And the “Change in Thermal Melting Points, Human Telomere (HT), 2:1” value [1]?
Its value is 6.0.

And the “Change in Thermal Melting Points, Human Telomere (HT), 4:1” value [1]?
Its value is 12.2.

What about the “Change in Thermal Melting Points, Human Telomere (HT), 6:1” value [1] of the same compound?
The value was 13.2.

What about the “Fluorescence Enhancement, HT” value [2] of the same compound?
The value was 1.74.

What about the “Fluorescence Enhancement, c-Myc” value (c-Myc quadruplex DNA) of the same compound?
The value was 3.58.

Which results are given for `CC1(C)C(=CC=CC2=[N+](CCC[N+](C)(C)C)c3ccc(Cl)cc3C2(C)C)N(CCC[N+](C)(C)C)c2ccc(Cl)cc21.[Br-].[Br-].[Br-]` [A-138 (17)]?
Change in Thermal Melting Points, Duplex, 1:1 (Duplex DNA): 0.0; Change in Thermal Melting Points, Duplex, 2:1 (Duplex DNA): 0.0; Change in Thermal Melting Points, Duplex, 4:1 (Duplex DNA): −1.0; Selectivity for quadruplex over duplex DNA by thermal melting [1]: selectively bind to quadruplex DNA with little or no binding to duplex DNA; Change in Thermal Melting Points, Human Telomere (HT), 1:1 [1]: 3.0; Change in Thermal Melting Points, Human Telomere (HT), 2:1 [1]: 7.0; Change in Thermal Melting Points, Human Telomere (HT), 4:1 [1]: 14.6; Fluorescence Enhancement, HT [2]: 2.7; Fluorescence Enhancement, c-Myc (c-Myc quadruplex DNA): 5.4

With `CC1(C)C(=CC=CC2=[N+](CCC[N+](C)(C)C)c3ccc(S(=O)(=O)[O-])cc3C2(C)C)N(CCC[N+](C)(C)C)c2ccc(S(=O)(=O)[O-])cc21.[Br-]` [MH2 (31)] as the compound, how does the “Change in Thermal Melting Points, Human Telomere (HT), 1:1” value [1] read?
The value was 1.5.

What about the “Change in Thermal Melting Points, Human Telomere (HT), 2:1” value [1] of the same compound?
Its value is 1.1.

What about the “Change in Thermal Melting Points, Human Telomere (HT), 4:1” value [1] of the same compound?
Its value is 0.6.

And the “Change in Thermal Melting Points, Human Telomere (HT), 6:1” value [1]?
The value was 1.2.

Which results are given for `CC1(C)C(=CC=CC2=[N+](CCC[N+](C)(C)C)c3ccccc3C2(C)C)N(CCC[N+](C)(C)C)c2ccccc21.[Br-].[Br-].[Br-]` [MH4 (26)]?
Change in Thermal Melting Points, Duplex, 1:1 (Duplex DNA): 0; Change in Thermal Melting Points, Duplex, 2:1 (Duplex DNA): 0.9; Change in Thermal Melting Points, Duplex, 4:1 (Duplex DNA): −0.2; Change in Thermal Melting Points, Duplex, 6:1 (Duplex DNA): 1.8; Selectivity for quadruplex over duplex DNA by thermal melting [1]: selectively bind to quadruplex DNA with little or no binding to duplex DNA; Change in Thermal Melting Points, Human Telomere (HT), 1:1 [1]: 1.6; Change in Thermal Melting Points, Human Telomere (HT), 2:1 [1]: 4.1; Change in Thermal Melting Points, Human Telomere (HT), 4:1 [1]: 8.7; Change in Thermal Melting Points, Human Telomere (HT), 6:1 [1]: 13.7; Fluorescence Enhancement, HT [2]: 1.68; Fluorescence Enhancement, c-Myc (c-Myc quadruplex DNA): 7.74

How did the “Thermal Melting (Δ° C.), Duplex DNA, 1:1 ratio” value (Duplex DNA) turn out when `CC1(C)C(/C=C/C(=C/C=C2\N(CCC[N+](C)(C)C)c3ccccc3C2(C)C)c2ccncc2)=[N+](CCC[N+](C)(C)C)c2ccccc21` [SP-2-36] was run?
Its value is 0.2 +/− 0.3 °C.

What about the “Thermal Melting (Δ° C.), Duplex DNA, 1:2 ratio” value (Duplex DNA) of the same compound?
The value was 0.5 +/− 0.5 °C.

What about the “Thermal Melting (Δ° C.), Duplex DNA, 1:4 ratio” value (Duplex DNA) of the same compound?
The value was 0.5 +/− 0.3 °C.

What about the “Thermal Melting (Δ° C.), Duplex DNA, 1:6 ratio” value (Duplex DNA) of the same compound?
The value was 0.6 +/− 0.3 °C.

And the “Thermal Melting (Δ° C.), Quadruplex DNA, 1:1 ratio” value [1]?
Its value is 0.9 +/− 0.1 °C.

What about the “Thermal Melting (Δ° C.), Quadruplex DNA, 1:2 ratio” value [1] of the same compound?
Its value is 1.4 +/− 0.2 °C.

And the “Thermal Melting (Δ° C.), Quadruplex DNA, 1:4 ratio” value [1]?
The value was 3.5 +/− 0.8 °C.

And the “Thermal Melting (Δ° C.), Quadruplex DNA, 1:6 ratio” value [1]?
Its value is 4.4 +/− 0.5 °C.

For `CC1(C)C(/C=C/C(Cl)=C/C=C2\N(CCC[N+](C)(C)C)c3ccc(F)cc3C2(C)C)=[N+](CCC[N+](C)(C)C)c2ccc(F)cc21` [T4], which “Thermal Melting (Δ° C.), Duplex DNA, 1:1 ratio” value (Duplex DNA) is on record?
The value was 0.4 +/− 0.4 °C.

What about the “Thermal Melting (Δ° C.), Duplex DNA, 1:2 ratio” value (Duplex DNA) of the same compound?
Its value is 0.5 +/− 0.4 °C.

And the “Thermal Melting (Δ° C.), Duplex DNA, 1:4 ratio” value (Duplex DNA)?
Its value is 0.9 +/− 0.5 °C.

What about the “Thermal Melting (Δ° C.), Duplex DNA, 1:6 ratio” value (Duplex DNA) of the same compound?
The value was 1.2 +/− 0.7 °C.

And the “Thermal Melting (Δ° C.), Quadruplex DNA, 1:1 ratio” value [1]?
Its value is 1.6 +/− 0.2 °C.

What about the “Thermal Melting (Δ° C.), Quadruplex DNA, 1:2 ratio” value [1] of the same compound?
Its value is 3.3 +/− 0.4 °C.

What about the “Thermal Melting (Δ° C.), Quadruplex DNA, 1:4 ratio” value [1] of the same compound?
Its value is 8.0 +/− 0.7 °C.

What about the “Thermal Melting (Δ° C.), Quadruplex DNA, 1:6 ratio” value [1] of the same compound?
The value was 10.7 +/− 0.7 °C.

What does the source list for `CC1(C)C(/C=C/C(Br)=C/C=C2\N(CCC[N+](C)(C)C)c3ccc(F)cc3C2(C)C)=[N+](CCC[N+](C)(C)C)c2ccc(F)cc21` [T5]?
Thermal Melting (Δ° C.), Duplex DNA, 1:1 ratio (Duplex DNA): 0.1 +/− 0.2 °C; Thermal Melting (Δ° C.), Duplex DNA, 1:2 ratio (Duplex DNA): 0.8 +/− 0.4 °C; Thermal Melting (Δ° C.), Duplex DNA, 1:4 ratio (Duplex DNA): 0.8 +/− 0.4 °C; Thermal Melting (Δ° C.), Duplex DNA, 1:6 ratio (Duplex DNA): 0.9 +/− 0.4 °C; Thermal Melting (Δ° C.), Quadruplex DNA, 1:1 ratio [1]: 2.7 +/− 0.3 °C; Thermal Melting (Δ° C.), Quadruplex DNA, 1:2 ratio [1]: 6.2 +/− 0.4 °C; Thermal Melting (Δ° C.), Quadruplex DNA, 1:4 ratio [1]: 13.3 +/− 0.4 °C; Thermal Melting (Δ° C.), Quadruplex DNA, 1:6 ratio [1]: 16.9 +/− 0.6 °C; Selectivity for quadruplex over duplex DNA by thermal melting [1]: bind quite strongly to the quadruplex with excellent selectivity

Which results are given for `CCCCn1/c(=C/C=C/C2=[N+](CCC[N+](C)(C)C)c3ccccc3C2(C)C)c2cccc3cccc1c32` [ZK-14]?
Thermal Melting (Δ° C.), Duplex DNA, 1:1 ratio (Duplex DNA): 0.6 +/− 0.1 °C; Thermal Melting (Δ° C.), Duplex DNA, 1:2 ratio (Duplex DNA): 0.8 +/− 0.3 °C; Thermal Melting (Δ° C.), Duplex DNA, 1:4 ratio (Duplex DNA): 2.7 +/− 0.1 °C; Thermal Melting (Δ° C.), Duplex DNA, 1:6 ratio (Duplex DNA): 2.8 +/− 0.3 °C; Thermal Melting (Δ° C.), Quadruplex DNA, 1:1 ratio [1]: 1.9 +/− 0.3 °C; Thermal Melting (Δ° C.), Quadruplex DNA, 1:2 ratio [1]: 7.7 +/− 1.1 °C; Thermal Melting (Δ° C.), Quadruplex DNA, 1:4 ratio [1]: 20.4 +/− 1.0 °C; Thermal Melting (Δ° C.), Quadruplex DNA, 1:6 ratio [1]: 26.0 +/− 0.5 °C; Selectivity for quadruplex over duplex DNA by thermal melting [1]: bind quite strongly to the quadruplex with excellent selectivity
